Test results taken from ChEMBL document CHEMBL3046243, “Synthesis, antifungal activity and SAR of N-substituted and N,N-disubstituted 2,4-dihydroxythiobenzamides” (J Pestic Sci, 2006).

Legend:
Botrytis cinerea [1] = test: Antifungal activity against Botryotinia fuckeliana assessed as inhibition of mycelial growth at 20 ppm at 21 +/- 1 degC measured after 3 days; format: functional; conditions: 72 h, read-out: GI
Rhizoctonia solani [2] = test: Antifungal activity against Rhizoctonia solani assessed as inhibition of mycelial growth at 200 ppm at 21 +/- 1 degC measured after 4 days; format: functional; conditions: 96 h, read-out: GI
Alternaria alternata [3] = test: Antifungal activity against Alternaria alternata assessed as inhibition of mycelial growth at 20 ppm at 21 +/- 1 degC measured after 5 days; format: functional; conditions: 120 h, read-out: GI
[4] = Lipophilicity, log K of the compound in water; format: physicochemical; conditions: buffer
Phytophthora cactorum [5] = test: Antifungal activity against Phytophthora cactorum assessed as inhibition of mycelial growth at 20 ppm at 21 +/- 1 degC measured after 5 days; format: functional; conditions: 120 h, read-out: GI
Rhizoctonia solani [6] = test: Antifungal activity against Rhizoctonia solani assessed as inhibition of mycelial growth at 20 ppm at 21 +/- 1 degC measured after 4 days; format: functional; conditions: 96 h, read-out: GI
Fusarium culmorum [7] = test: Antifungal activity against Fusarium culmorum assessed as inhibition of mycelial growth at 20 ppm at 21 +/- 1 degC measured after 5 days; format: functional; conditions: 120 h, read-out: GI
[8] = Octanol-water partition coefficient, log P of the compound; format: physicochemical
Fusarium culmorum [9] = test: Antifungal activity against Fusarium culmorum assessed as inhibition of mycelial growth at 200 ppm at 21 +/- 1 degC measured after 5 days; format: functional; conditions: 120 h, read-out: GI
Alternaria alternata [10] = test: Antifungal activity against Alternaria alternata assessed as inhibition of mycelial growth at 200 ppm at 21 +/- 1 degC measured after 5 days; format: functional; conditions: 120 h, read-out: GI
Botrytis cinerea [11] = test: Antifungal activity against Botryotinia fuckeliana assessed as inhibition of mycelial growth at 200 ppm at 21 +/- 1 degC measured after 3 days; format: functional; conditions: 72 h, read-out: GI
Phytophthora cactorum [12] = test: Antifungal activity against Phytophthora cactorum assessed as inhibition of mycelial growth at 200 ppm at 21 +/- 1 degC measured after 5 days; format: functional; conditions: 120 h, read-out: GI

Structure (SMILES)	inhibition of growth at 20 ppm (Botrytis cinerea [1]) [%]	inhibition of growth at 200 ppm (Rhizoctonia solani [2]) [%]	inhibition of growth at 20 ppm (Alternaria alternata [3]) [%]	logKw [4]	inhibition of growth at 20 ppm (Phytophthora cactorum [5]) [%]	inhibition of growth at 20 ppm (Rhizoctonia solani [6]) [%]	inhibition of growth at 20 ppm (Fusarium culmorum [7]) [%]	logP [8]	inhibition of growth at 200 ppm (Fusarium culmorum [9]) [%]	inhibition of growth at 200 ppm (Alternaria alternata [10]) [%]	inhibition of growth at 200 ppm (Botrytis cinerea [11]) [%]	inhibition of growth at 200 ppm (Phytophthora cactorum [12]) [%]
Cc1cc(NC(=S)c2ccc(O)cc2O)ccc1N1C(=O)c2ccc(Cl)cc2C1=O	0	0	0	3.63	0	0	0	4.57	21	21	0	0
CCN(C(=S)c1ccc(O)cc1O)c1cccc2ccccc12	0	0	0	5.09	0	0	0	5.03	21	21	0	21
Oc1ccc(C(=S)N(c2ccccc2)c2nnns2)c(O)c1	51	81	51	3.3	21	21	21		81	81	81	81
Oc1ccc(C(=S)N(Cc2ccccc2)c2ccccn2)c(O)c1	0	21	0	3.96	0	0	0	4.56	21	21	51	21
COc1ccc(NC(=S)c2ccc(O)cc2O)cc1O	0	51	0	2.52	0	0	0	2.39	51	51	51	21
C=C(C)c1ccccc1NC(=S)c1ccc(O)cc1O	51	81	51	4.55	51	51	51	4.27	81	81	81	81
O=[N+]([O-])c1cc(NC(=S)c2ccc(O)cc2O)ccc1F	21	81	21	3.96	21	51	21	3.43	81	81	81	81
Oc1ccc(C(=S)Nc2cc(C(F)(F)F)cc(C(F)(F)F)c2)c(O)c1	51	81	51	6.06	51	21	51	4.75	81	81	81	81
Oc1ccc(C(=S)Nc2cccc3c2CCCC3)c(O)c1	51	81	51	3.56	51	51	51	4.22	81	81	81	81
O=C(c1ccccc1)c1ccc(NC(=S)c2ccc(O)cc2O)cc1	0	51	0	4.28	21	0	0	4.12	51	51	51	51
Oc1ccc(C(=S)Nc2ccccc2-n2cccc2)c(O)c1	21	81	21	3.59	21	51	51	3.29	81	81	81	81
Oc1ccc(C(=S)Nc2ccc(N3CCOCC3)cc2)c(O)c1	0	0	0	2.49	0	0	0	2.79	21	0	21	21
Oc1ccc(C(=S)Nc2nc(=S)ss2)c(O)c1	51	81	21	2.99	51	21	21	4.45	81	81	81	81
Cc1ccc2sc(-c3ccc(NC(=S)c4ccc(O)cc4O)cc3)nc2c1	0	0	0	4.87	0	0	0	3.89	21	21	0	0
COC(=O)Nc1nc2ccccc2[nH]1 [CARBENDAZIM]		81			81	81	81		81			81
CCCN(CCOc1c(Cl)cc(Cl)cc1Cl)C(=O)n1ccnc1 [PROCHLORAZ]			81		81		81		81	81		81
CC12CC1(C)C(=O)N(c1cc(Cl)cc(Cl)c1)C2=O (stereo not drawn) [PROCYMIDONE]	81		81							81	81	
